# Counter-ions that a name gives are not always drawn.
# Target: T1, Androgen Receptor (Homo sapiens, UniProt P10275, T878A)
# T1 construct: the AR gene was modified, using CRISPR/Cas9 editing, so the expressed AR protein included an 11 amino acid HiBiT tag; endogenous in cells; host or cells: clonal LnCaP-derived line, AR gene edited by CRISPR/Cas9
# Test: Androgen Receptor Degradation Assay (Nano-Glo HiBiT)
# Assay type: cell-based
# Details: LNCaP, 18 h, HiBiT-tagged AR in human LnCaP cells, read-out: mean asymptote max
# Outline: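 LnCaP cells with CRISPR-knocked-in N-terminal HiBiT-tagged AR (10,000/well) treated 18 h at 37 °C with PROTACs over 11 threefold concentrations; lytic HiBiT luminescence normalised to DMSO (0%) and cell-free (100%) controls. Relative DC50 = 4-parameter fit inflection; absolute DC50 = 50% degradation interpolation; Dmax = maximum observed degradation.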
# T1 sequence (P10275 whole entry T878A): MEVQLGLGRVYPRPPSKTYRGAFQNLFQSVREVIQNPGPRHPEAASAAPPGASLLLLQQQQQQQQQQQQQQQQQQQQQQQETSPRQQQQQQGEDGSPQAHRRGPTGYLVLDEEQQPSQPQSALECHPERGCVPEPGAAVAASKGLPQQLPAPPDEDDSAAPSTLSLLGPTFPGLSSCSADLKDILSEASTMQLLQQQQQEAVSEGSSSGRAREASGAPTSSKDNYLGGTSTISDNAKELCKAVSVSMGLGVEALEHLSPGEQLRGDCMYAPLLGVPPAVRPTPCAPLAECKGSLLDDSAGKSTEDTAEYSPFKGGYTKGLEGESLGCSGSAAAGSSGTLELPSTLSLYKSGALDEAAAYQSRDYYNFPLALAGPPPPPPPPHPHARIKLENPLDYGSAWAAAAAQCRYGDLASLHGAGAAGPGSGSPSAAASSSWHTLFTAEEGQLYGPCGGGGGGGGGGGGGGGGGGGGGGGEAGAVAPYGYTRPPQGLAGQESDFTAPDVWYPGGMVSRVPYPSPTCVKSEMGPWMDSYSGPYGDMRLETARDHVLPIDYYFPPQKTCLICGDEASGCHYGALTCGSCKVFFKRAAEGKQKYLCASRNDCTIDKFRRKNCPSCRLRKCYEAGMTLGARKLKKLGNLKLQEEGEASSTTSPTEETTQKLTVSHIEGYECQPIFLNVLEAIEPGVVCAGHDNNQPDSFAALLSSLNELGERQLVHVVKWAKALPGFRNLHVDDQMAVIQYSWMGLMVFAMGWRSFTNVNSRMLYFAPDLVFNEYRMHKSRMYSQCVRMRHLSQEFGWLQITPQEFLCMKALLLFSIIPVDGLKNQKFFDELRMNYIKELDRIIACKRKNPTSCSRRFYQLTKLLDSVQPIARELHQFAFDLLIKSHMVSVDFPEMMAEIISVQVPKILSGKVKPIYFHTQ
# T1 sequence (Q96SW2 whole entry partner): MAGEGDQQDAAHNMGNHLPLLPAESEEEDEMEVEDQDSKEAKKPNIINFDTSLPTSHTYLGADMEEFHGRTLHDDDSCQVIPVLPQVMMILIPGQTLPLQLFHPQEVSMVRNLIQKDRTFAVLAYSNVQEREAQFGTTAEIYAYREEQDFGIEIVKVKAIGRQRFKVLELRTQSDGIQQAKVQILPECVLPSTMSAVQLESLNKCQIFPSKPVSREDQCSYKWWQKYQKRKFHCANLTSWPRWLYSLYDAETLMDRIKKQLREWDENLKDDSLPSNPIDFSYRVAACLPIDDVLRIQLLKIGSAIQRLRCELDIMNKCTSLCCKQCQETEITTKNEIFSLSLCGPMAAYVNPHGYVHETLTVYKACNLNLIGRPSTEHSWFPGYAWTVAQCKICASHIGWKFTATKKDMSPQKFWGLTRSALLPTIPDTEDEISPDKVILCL
# T1 sequence (Q16531 whole entry partner): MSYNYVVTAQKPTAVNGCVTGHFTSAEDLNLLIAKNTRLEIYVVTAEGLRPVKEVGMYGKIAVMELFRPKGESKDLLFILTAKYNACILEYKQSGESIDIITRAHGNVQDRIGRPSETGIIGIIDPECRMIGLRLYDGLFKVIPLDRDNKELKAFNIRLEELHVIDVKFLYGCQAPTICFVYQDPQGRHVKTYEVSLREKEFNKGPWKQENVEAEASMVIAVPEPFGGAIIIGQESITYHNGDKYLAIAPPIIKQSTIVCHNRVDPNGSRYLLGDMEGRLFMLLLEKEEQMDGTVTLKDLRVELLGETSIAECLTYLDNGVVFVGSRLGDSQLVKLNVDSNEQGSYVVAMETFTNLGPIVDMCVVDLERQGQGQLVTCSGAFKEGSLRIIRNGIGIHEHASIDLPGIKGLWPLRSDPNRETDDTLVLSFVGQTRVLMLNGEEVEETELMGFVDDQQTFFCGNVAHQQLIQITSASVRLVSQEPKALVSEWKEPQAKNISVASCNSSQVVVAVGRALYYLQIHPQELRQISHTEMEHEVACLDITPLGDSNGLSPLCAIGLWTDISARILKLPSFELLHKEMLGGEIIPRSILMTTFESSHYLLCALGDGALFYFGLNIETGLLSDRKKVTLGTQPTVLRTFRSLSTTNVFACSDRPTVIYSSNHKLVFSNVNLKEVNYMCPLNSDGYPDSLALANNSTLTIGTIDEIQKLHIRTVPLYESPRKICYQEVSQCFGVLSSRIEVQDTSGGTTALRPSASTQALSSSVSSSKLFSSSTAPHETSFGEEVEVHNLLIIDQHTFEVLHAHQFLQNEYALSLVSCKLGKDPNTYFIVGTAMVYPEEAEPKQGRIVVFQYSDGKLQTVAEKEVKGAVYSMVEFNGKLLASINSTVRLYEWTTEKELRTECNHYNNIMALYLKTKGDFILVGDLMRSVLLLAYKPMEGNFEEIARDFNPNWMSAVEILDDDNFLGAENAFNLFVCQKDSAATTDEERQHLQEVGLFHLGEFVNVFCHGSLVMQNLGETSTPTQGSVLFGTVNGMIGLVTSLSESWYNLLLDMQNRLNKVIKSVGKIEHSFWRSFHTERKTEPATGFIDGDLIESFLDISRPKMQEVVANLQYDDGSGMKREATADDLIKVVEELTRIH
row,SMILES,Dmax [%]
1,"N#Cc1ccc(O[C@H]2CC[C@H](NC(=O)c3ccc(N4CC(CN5CCC(n6ncc7c(N8CCC(=O)NC8=O)cccc76)CC5)C4)nn3)CC2)cc1Cl [EAR154, N-((1r,4r)-4-(3-Chloro-4-cyanophenoxy)cyclohexyl)-6-(3-((4-(4-(2,4-dioxotetrahydropyrimidin-1(2H)-yl)-1H-indazol-1-yl)piperidin-1-yl)methyl)azetidin-1-yl)pyridazine-3-carboxamide, formic acid salt]",≥ 50
2,"CC1(C)CC(CN2CCC(n3ncc4c(N5CCC(=O)NC5=O)cccc43)CC2)CN(c2ccc(C(=O)N[C@H]3CC[C@H](Oc4ccc(C#N)c(Cl)c4)CC3)nn2)C1 (stereo partly drawn) [EAR223, N-((1r,4r)-4-(3-chloro-4-cyanophenoxy)cyclohexyl)-6-(5-((4-(4-(2,4-dioxotetrahydropyrimidin-1(2H)-yl)-1H-indazol-1-yl)piperidin-1-yl)methyl)-3,3-dimethylpiperidin-1-yl)pyridazine-3-carboxamide]",≥ 50
3,"CC(C)n1ccc2c(N3CCC(=O)NC3=O)cc(C(=O)N3CCC4(CCN(CCCc5ccc(C(=O)N[C@H]6CC[C@H](Oc7ccc(C#N)c(Cl)c7)CC6)cc5)CC4)CC3)cc21 [EAR85, N-((1r,4r)-4-(3-Chloro-4-cyanophenoxy)cyclohexyl)-4-(3-(9-(4-(2,4-dioxotetrahydropyrimidin-1(2H)-yl)-1-isopropyl-1H-indole-6-carbonyl)-3,9-diazaspiro[5.5]undecan-3-yl)propyl)benzamide]",≥ 50
4,"C[C@@H]1CN(c2ccc(C#N)c(Cl)c2)[C@@H](C)CN1C(=O)Nc1ccc(OCCCCN2CCC(n3ccc4c(N5CCC(=O)NC5=O)cncc43)CC2)nc1 [EAR111, (2R,5S)-4-(3-Chloro-4-cyanophenyl)-N-(6-(4-(4-(4-(2,4-dioxotetrahydropyrimidin-1(2H)-yl)-1H-pyrrolo[2,3-c]pyridin-1-yl)piperidin-1-yl)butoxy)pyridin-3-yl)-2,5-dimethylpiperazine-1-carboxamide]",≥ 50
5,"N#Cc1ccc(O[C@H]2CC[C@H](NC(=O)c3ccc(N4CCC(CN5CCC(n6ccc7c(N8CCC(=O)NC8=O)cccc76)CC5)CC4)nc3)CC2)cc1Cl [EAR13, N-((1r,4r)-4-(3-Chloro-4-cyanophenoxy)cyclohexyl)-6-(4-((4-(4-(2,4-dioxotetrahydropyrimidin-1(2H)-yl)-1H-indol-1-yl)piperidin-1-yl)methyl)piperidin-1-yl)nicotinamide]",≥ 50
6,"N#Cc1ccc(O[C@H]2CC[C@H](NC(=O)c3ccc(N4CCC(CN5CCC(n6ccc7c(N8CCC(=O)NC8=O)nccc76)CC5)CC4)nn3)CC2)cc1Cl [EAR148, N-((1r,4r)-4-(3-Chloro-4-cyanophenoxy)cyclohexyl)-6-(4-((4-(4-(2,4-dioxotetrahydropyrimidin-1(2H)-yl)-1H-pyrrolo[3,2-c]pyridin-1-yl)piperidin-1-yl)methyl)piperidin-1-yl)pyridazine-3-carboxamide]",≥ 50
7,"CC1(C)[C@H](NC(=O)c2ccc(N3CCC(CN4CCC(n5ccc6c(N7CCC(=O)NC7=O)cccc65)CC4)CC3)nn2)C(C)(C)[C@H]1Oc1ccc(C#N)c(Cl)c1 [EAR55, N-((1r,3r)-3-(3-Chloro-4-cyanophenoxy)-2,2,4,4-tetramethylcyclobutyl)-6-(4-((4-(4-(2,4-dioxotetrahydropyrimidin-1(2H)-yl)-1H-indol-1-yl)piperidin-1-yl)methyl)piperidin-1-yl)pyridazine-3-carboxamide]",≥ 50
8,"CC(C)n1ccc2c(N3CCC(=O)NC3=O)cc(C(=O)N3CCN(CCCCOc4ccc(N5C(=S)N(c6ccc(C#N)c(C(F)(F)F)c6)C(=O)C5(C)C)cc4)CC3)cc21 [EAR92, 4-(3-(4-(4-(4-(4-(2,4-Dioxotetrahydropyrimidin-1(2H)-yl)-1-isopropyl-1H-indole-6-carbonyl)piperazin-1-yl)butoxy)phenyl)-4,4-dimethyl-5-oxo-2-thioxoimidazolidin-1-yl)-2-(trifluoromethyl)benzonitrile]",≥ 50
9,"N#Cc1ccc(O[C@H]2CC[C@H](NC(=O)c3ccc(C4CCN(C(=O)CN5CCC(n6ccc7c(N8CCC(=O)NC8=O)cccc76)CC5)CC4)cc3)CC2)cc1Cl [AR1, N-((1r,4r)-4-(3-Chloro-4-cyanophenoxy)cyclohexyl)-4-(1-(2-(4-(4-(2,4-dioxotetrahydropyrimidin-1(2H)-yl)-1H-indol-1-yl)piperidin-1-yl)acetyl)piperidin-4-yl)benzamide]",≥ 50
10,"N#Cc1ccc(O[C@H]2CC[C@H](NC(=O)c3cnc(N4CCC(CN5CCC(n6ncc7c(N8CCC(=O)NC8=O)nccc76)CC5)CC4)cn3)CC2)cc1Cl [EAR203, N-((1r,4r)-4-(3-Chloro-4-cyanophenoxy)cyclohexyl)-5-(4-((4-(4-(2,4-dioxotetrahydropyrimidin-1(2H)-yl)-1H-pyrazolo[4,3-c]pyridin-1-yl)piperidin-1-yl)methyl)piperidin-1-yl)pyrazine-2-carboxamide hydrochloride]",≥ 50
11,"N#Cc1ccc(O[C@H]2CC[C@H](NC(=O)c3ccc(N4CCC(CN5CCC(n6ncc7c(N8CCC(=O)NC8=O)cccc76)CC5)CC4)nn3)CC2)cc1C(F)(F)F [EAR44, N-((1r,4r)-4-(4-Cyano-3-(trifluoromethyl)phenoxy)cyclohexyl)-6-(4-((4-(4-(2,4-dioxotetrahydropyrimidin-1(2H)-yl)-1H-indazol-1-yl)piperidin-1-yl)methyl)piperidin-1-yl)pyridazine-3-carboxamide]",≥ 50
12,"CC1(C)C(=O)N(c2ccc(C#N)c(C(F)(F)F)c2)C(=S)N1c1ccc(N2CCC(CN3CCC(n4ccc5c(N6CCC(=O)NC6=O)cccc54)CC3)CC2)cc1 [EAR99, 4-(3-(4-(4-((4-(4-(2,4-Dioxotetrahydropyrimidin-1(2H)-yl)-1H-indol-1-yl)piperidin-1-yl)methyl)piperidin-1-yl)phenyl)-4,4-dimethyl-5-oxo-2-thioxoimidazolidin-1-yl)-2-(trifluoromethyl)benzonitrile formate]",≥ 50
13,"C[C@@H]1CN(c2ccc(C#N)c(Cl)c2)[C@@H](C)CN1C(=O)Nc1cnc(N2CCC(CN3CCC(n4ccc5c(N6CCC(=O)NC6=O)cncc54)CC3)CC2)nc1 [EAR106, (2R,5S)-4-(3-Chloro-4-cyanophenyl)-N-(2-(4-((4-(4-(2,4-dioxotetrahydropyrimidin-1(2H)-yl)-1H-pyrrolo[2,3-c]pyridin-1-yl)piperidin-1-yl)methyl)piperidin-1-yl)pyrimidin-5-yl)-2,5-dimethylpiperazine-1-carboxamide]",≥ 50
14,"C[C@@H]1CN(C(=O)Nc2ccc(N3CCC(CCN4CCC(n5ncc6c(N7CCC(=O)NC7=O)cccc65)CC4)CC3)nc2)[C@@H](C)CN1c1ccc(C#N)c(Cl)c1 [EAR132, (2S,5R)-4-(3-Chloro-4-cyanophenyl)-N-(6-(4-(2-(4-(4-(2,4-dioxotetrahydropyrimidin-1(2H)-yl)-1H-indazol-1-yl)piperidin-1-yl)ethyl)piperidin-1-yl)pyridin-3-yl)-2,5-dimethylpiperazine-1-carboxamide, formic acid salt]",≥ 50
15,"CC(C)n1ccc2c(N3CCC(=O)NC3=O)cc(C(=O)N(C)CC3CCN(CCCOc4ccc(C(=O)N[C@H]5CC[C@H](Oc6ccc(C#N)c(Cl)c6)CC5)nc4)CC3)cc21 [EAR61, N-((1-(3-((6-(((1r,4r)-4-(3-Chloro-4-cyanophenoxy)cyclohexyl)carbamoyl)pyridin-3-yl)oxy)propyl)piperidin-4-yl)methyl)-4-(2,4-dioxotetrahydropyrimidin-1(2H)-yl)-1-isopropyl-N-methyl-1H-indole-6-carboxamide]",≥ 50

# — patent publication US20250205344A1, “2,4-DIOXOTETRAHYDROPYRIMIDINYL DERATIVES AS DEGRONS IN PROTACS” (GLAXOSMITHKLINE INTELLECTUAL PROPERTY DEVELOPMENT LIMITED, priority 2022, published 2025)
